Experiments:
[1] = system: patient with GM1 Gangliosidosis; assay: Case study, GM1 Gangliosidosis; format: in vivo, human; conditions: after one month, 1.5 g then 3 g per day
Text: For example, to evaluate overall neurological status, mDRS, a four-domain scale (ambulation, manipulation, language and swallowing), may be applied. Cerebellar function may be evaluated using SARA, an eight-item clinical rating scale (gait, stance, sitting, speech, fine motor function and taxis; range 0-40, where 0 is the best neurological status and 40 the worst), and SCAFI, comprising the 8-m-Walking-Time (8MW; performed by having patients walking twice as quickly as possible from one line to another excluding turning), 9-Hole-Peg-Test (9HPT) and the number of “PATA” repetitions over 10 s. Subjective impairment and quality of life may be evaluated using the EQ-5D-5L questionnaire and VAS. To assess ocular motor function, 3-dimensional videooculography (EyeSeeCam) may be used to measure the peak velocity of saccades, gain of smooth pursuit, peak slow phase velocity of gaze-evoked nystagmus (gaze-holding function), peak slow phase velocity of optokinetic nystagmus, and gain of horizontal vestibulo-ocular reflex. To evaluate the cognitive state, WAIS-R or WISC-IV, and MoCA, assessing different cognitive domains, including attention and concentration, executive functions, memory, language, visuoconstructional skills, conceptual thinking, calculations, and orientation with a maximum of 30 points and a cut-off score of 26, may be used. […]

[2] = system: patients with multiple system atrophy Parkinson type (MSA-P); assay: Case studies, multiple system atrophy Parkinson type; format: in vivo, human; conditions: MSA-P Patient 3, after one month
Text: Medication was stopped. […] The patient evaluated after one month on acetyl-DL-leucine. […] Episodes of mental confusion completely disappeared. The patient's cognitive structure seemed much clearer and straighter. […] The patient's spouse supported continuing the medication.

[3] = system: Sandhoff disease model, Hexb−/− mouse; assay: Lifespan of Sandhoff mouse; format: in vivo; conditions: 0.1 g/kg from 3 weeks of age, p<0.05 vs untreated
Protocol: This study made use of a mouse model of Sandhoff disease, the Hexb^−/− mouse, as descrbed in Jeyakumar et al. (Jeyakumar, M. et al. (1999) Proc. Natl. Acad. Sci. USA 96: 6388-6393).
In FIG. 7A, acetyl-leucine-treated mice were treated with 0.1 g/kg acetyl-leucine from 3 weeks of age. The asterisks (*) indicates a p-value of <0.05 vs untreated Sandhoff mice. Data is average of n=6 mice per group. Without treatment, the median survival time of Sandhoff mice was 112 days. Treatment with acetyl-leucine (0.1 g/kg body weight since 3 weeks of age) increased the median lifespan to 120 days.

[4] = system: patients with multiple system atrophy Parkinson type (MSA-P); assay: Case studies, multiple system atrophy Parkinson type; format: in vivo, human
[5] = system: Sandhoff disease model, Hexb−/− mouse; assay: Step cycle time; format: in vivo; conditions: Sandhoff mice, 12 weeks of age
Protocol: This study made use of a mouse model of Sandhoff disease, the Hexb^−/− mouse, as descrbed in Jeyakumar et al. (Jeyakumar, M. et al. (1999) Proc. Natl. Acad. Sci. USA 96: 6388-6393). Step cycle is the length of time taken during locomotion by a limb from the time it leaves the ground until it leaves the ground on the next occasion. Step cycle time was assessed at 12 weeks of age in untreated and acetyl-leucine treated Sandhoff model mice. Acetyl-leucine treatment constituted 0.1 g/kg body weight acetyl-leucine from 3 weeks of age.

[6] = system: Npc1−/− mice; assay: Observation of coat condition and disease symptoms; format: in vivo, mouse; conditions: Npc1−/− mice treated from weaning
Text: Separate groups of Npc1^-/- and Npc1^+/+ mice were left untreated, as controls.

[7] = system: Mucolipidosis Type II (MLII) patient fibroblasts; assay: Lysosomal volume via LysoTracker; format: cell-based, human; conditions: 1 mM, 6 days
[8] = system: Aspartylglucosaminuria patient fibroblasts; assay: Lysosomal volume via LysoTracker; format: cell-based, human; conditions: 1 mM, 6 days
[9] = system: microtubule-associated protein 1A/1B-light chain 3-phosphatidylethanolamine conjugate (LC3-II); assay: LC3-II levels relative to tubulin loading control; format: in vivo, mouse; conditions: NPC1−/− mice, 0.1 g/kg body weight daily from 3 weeks, sacrificed at 8 weeks
Protocol: The Niemann-Pick Disease Type C (NPC) mouse model shares a number of pathological features with Alzheimer's disease (AD) as described herein. […] Mice were sacrificed at 8 weeks of age. Levels of amyloid precursor protein C-terminal fragments (APP-CTFs) were evaluated relative to total amyloid precursor protein (APP) levels in the cerebellum for wild type, untreated wild type NPC1^−/− mice, and AL-treated wild type NPC1^−/− mice. Levels of microtubule-associated protein 1A/1B-light chain 3-phosphatidylethanolamine conjugate (LC3-II) were also evaluated relative to levels of tubulin loading control for wild type, untreated wild type NPC1^−/− mice, and AL-treated wild type NPC1^−/− mice.

[10] = MSA-P Patient 2, after one month of treatment

Which results are given for `CC(=O)NC(CC(C)C)C(=O)O` (racemic) [acetyl-DL-leucine]?
Clinical re-examination [1]: stable general condition, increased gait (more fluent), and stable stance in natural position; Cognitive function (reported by wife) [2]: significant improvement of cognitive function; Gait function [2]: no improvement of gait function; Lifespan of the Sandhoff mouse [3]: statistically significant increase in the lifespan; Symptoms after stopping medication ([4]; MSA-P Patient 1, 6 weeks later): did not report deterioration of symptoms; Gait, falls, hypokinetic rigid-syndrome (patient report) ([4]; MSA-P Patient 1, after 3 weeks): no significant improvement of gait, reduction of falls or improved hypokinetic rigid-syndrome; Balance (clinical examination) [4, 10]: improved balancing on an imaginary tightrope; Dizziness (patient report) [4, 10]: subjective improvement of dizziness; Symptomatology (patient report) ([4]; MSA-P Patient 2, after one month without medication): stable symptomatology; Symptomatology (patient report) ([4]; MSA-P Patient 2, after two months without medication): worsening of general symptomatology; Average step cycle time ([5]; p<0.001 vs untreated): significantly faster average step cycle times; Hind step cycle time ([5]; p<0.01 vs untreated): significantly faster hind step cycle times; Front step cycle time ([5]; p<0.05 vs untreated): significantly faster front step cycle times; Delay of discernible disease symptoms vs untreated Npc1−/− littermates [6]: two; LysoTracker fluorescence vs untreated disease fibroblasts [7]: statistically significant reduction in LysoTracker fluorescence toward control level; LysoTracker fluorescence vs untreated disease fibroblasts [8]: trend in reducing LysoTracker fluorescence toward control level; LC3-II levels relative to tubulin [9]: lowering of LC3-II

Reference: US12458614B2, “Therapeutic agents for improved mobility and cognitive function and for treating neurodegenerative diseases and lysosomal storage disorders” (priority 2017, dated 2025)
